Experimental data as given in patent publication US7560454B2, “Condensed azepines as vasopressin agonists” (Vantia Limited, priority 2000, dated 2009).

Tested on: Brattleboro rat
Experiment: inhibition of urine output in Brattleboro rats
Format: in vivo
Conditions: 1 mg/kg p.o. in methylcellulose, vs control animals
Procedure: The Brattleboro rat is a recognised model for vasopressin deficiency (for a review see F D Grant, “Genetic models of vasopressin deficiency”, Exp. Physiol. 85, 203S-209S, 2000). […] Compounds of the invention were administered to Brattleboro rats (0.1-10 mg/kg p.o. in methylcellulose. Urine was collected hourly and volumes were compared with control animals. Animals had free access to food and water throughout the experiment. Representative results are given in the Table. Results for Desmopressin are given for comparison.

Compound: Cc1cc(C(=O)N2CCCCc3ccccc32)ccc1CNC(=O)N1CCC[C@H]1C(=O)N(C)C [Example 1, 1-(2-Methyl-4-(2,3,4,5-tetrahydro-1-benzazepin-1-ylcarbonyl)benzylcarbamoyl)-L-proline-N,N-dimethylamide]
- % inhibition of urine output (at 1 hour): 82%
